The source made the active and inactive calls.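 How the source made its calls: active means maximal percent inhibition of the deubiquitinase OTUD3 of at least 30% across the tested doses; inactive means the rest.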
Each molecule was assayed against OTU domain-containing protein 3 (Homo sapiens) (UniProt Q5T2D3) (assay: Validation of screening hits, potency titration, in vitro enzymatic, OTU domain-containing protein 3 DUB inhibitors (AID 1645868)). Details: purified OTUD3, ubiquitin-rhodamine cleavage fluorescence, 2 h.
OTU domain-containing protein 3 (Homo sapiens), sequence (Q5T2D3 whole entry, looked up, the tested form may be a part): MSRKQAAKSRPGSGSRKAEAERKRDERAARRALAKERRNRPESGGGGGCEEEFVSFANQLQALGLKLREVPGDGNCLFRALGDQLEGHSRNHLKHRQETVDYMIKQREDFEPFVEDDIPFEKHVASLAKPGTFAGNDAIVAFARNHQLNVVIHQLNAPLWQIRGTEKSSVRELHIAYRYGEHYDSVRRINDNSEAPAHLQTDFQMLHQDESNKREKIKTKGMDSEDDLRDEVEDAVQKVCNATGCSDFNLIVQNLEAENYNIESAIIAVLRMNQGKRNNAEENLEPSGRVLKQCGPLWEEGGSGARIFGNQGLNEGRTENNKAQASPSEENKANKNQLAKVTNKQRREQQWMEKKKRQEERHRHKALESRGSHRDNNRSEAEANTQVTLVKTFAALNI

| IC50 | SMILES |
| --- | --- |
| > 50 µM (inactive) | COc1ccccc1/C=C/C(=O)Nc1nc2n(n1)C(c1ccc(Cl)cc1)CC(=O)N2 (stereo not given) |
| > 50 µM (inactive) | N#Cc1ccc(Cc2ncc(C(F)(F)F)cc2Cl)s1 |
| > 50 µM (inactive) | O=C(Nc1ccc2c(c1)OCCO2)c1ccc(N2CCCCC2)nn1 |
| > 50 µM (inactive) | O=C(CSc1nnc(-c2ccncc2)n1Cc1ccccc1)c1ccc2[nH]c(O)cc2c1 |
| > 50 µM (inactive) | O=C(c1ccc(COc2cccc3ccccc23)o1)N1CCC(Cc2ccccc2)CC1 |
| > 50 µM (inactive) | Cc1ccc(C)c(Nc2cc(C)nc3nc(-c4ccco4)nn23)c1 |
| > 50 µM (inactive) | O=C1N(Cc2ccc(F)cc2)CCN1c1ccc2c(c1)CCC2 |
| > 50 µM (inactive) | O=C(Nc1ccc2c(c1)OCO2)c1[nH]nc2c1CCc1ccccc1-2 |
| 2.63 µM | COC1=CC(=O)c2c(O)c3c(c(C)c2C1=O)C[C@@]1(O)[C@H](O[C@H]2CC[C@H](O[C@H]4C[C@@](C)(O)[C@H](OC(=O)c5c(C)ccc(C)c5O)[C@H](C)O4)[C@@H](C)O2)C(=O)C(C(C)=O)=C(O)[C@@]1(O)C3=O |
| > 50 µM (inactive) | COc1ccc(O)c(C(=O)OCc2cc(=O)oc3ccc4ccccc4c23)c1 |
| > 50 µM (inactive) | Cc1ccc(CNC(=O)Cn2cnc3c(cnn3-c3cccc(Cl)c3)c2=O)cc1 |
| > 50 µM (inactive) | CC(C)(C)C(=O)[C@@H]1[C@@H](C(=O)c2ccc3c(c2)OCO3)[C@@]2(C(=O)Nc3ccccc32)[C@H]2c3ccccc3C=CN12 |
| > 50 µM (inactive) | CCn1c(Cn2cccn2)nc2cc(NC(=O)c3ccc(F)cc3)ccc21 |
| > 50 µM (inactive) | CCC(=O)Nc1cccnc1-c1ccc(C(=O)Nc2cccc(OC)c2)cc1 |
| 40.7 µM | CCc1ccc(-c2nc(SCC(=O)Nc3ccc4[nH]c(=O)[nH]c4c3)n[nH]2)cc1 |
| > 50 µM (inactive) | COc1cccc(/C=C/c2nc(C#N)c(N3CCN(C(=O)c4cccs4)CC3)o2)c1 |
| > 50 µM (inactive) | Cn1c(=O)c(C(=O)CN2CCN(c3ccc(O)cc3)CC2)c(N)n(Cc2ccccc2)c1=O |
| > 50 µM (inactive) | N#Cc1cn(CC(=O)N2CCc3ccccc32)c2ccccc12 |
| > 50 µM (inactive) | Cc1nc(-c2noc(-c3ccncc3)n2)cn1CC(=O)N1CCN(c2ccc(F)cc2)CC1 |
| > 50 µM (inactive) | CC[C@H](C)[C@H](NC(=O)[C@H]([C@@H](C)CC)N(C)C(C)=O)C(=O)N[C@H](C(=O)N[C@@H](CC(C)C)C(=O)C1(C)CO1)[C@@H](C)O (stereo not given in full) |
| 30.4 µM | CN(C)c1cc(-n2cnc(C(=O)NCc3ccccc3Cl)c2)ncn1 |
| > 50 µM (inactive) | COc1ccc(CCNc2c(-c3ccccc3O)nc3cnccn23)cc1OC |
| > 50 µM (inactive) | CC1OC2CC(O)C1(O)C1=C2C(=O)c2c(O)c3c(c(O)c2C1=O)[C@H](C)O[C@H]1CC(=O)O[C@@H]31 (stereo not given in full) |

| IC50 | SMILES |
| --- | --- |
| 26.2 µM | COc1ccc(C(=O)NCCc2nnc3ccc(SCC(=O)NCc4ccc(F)cc4)nn23)cc1 |
| > 50 µM (inactive) | COc1ccc(C2CC(c3ccc(C)cc3)N(C(=O)C3CC3)c3ncnn32)cc1 (stereo not given) |
| > 50 µM (inactive) | CCc1ccc2c(c1)[C@]1(C(=O)N2)[C@@H]2C(=O)N(c3ccc(Cl)cc3Cl)C(=O)[C@@H]2[C@@H]2CCCN21 |
| 2.76 µM | COc1cc(C)c2c(=O)c3c(oc2c1)C(=O)c1c(O)c(OC)cc(O)c1C3=O |
| > 50 µM (inactive) | COc1cc(C(=O)Nc2ccc(-c3csc(C)n3)cc2)cc(OC)c1OC |
| > 50 µM (inactive) | Cc1nc2nc(SCc3nc4ccccc4n3C)[nH]c2cc1Br |
| 19.7 µM | O=C(CC1C(=O)N(Cc2ccccc2)c2nc3ccccc3n21)NCCc1ccccc1 (stereo not given) |
| > 50 µM (inactive) | Cc1cc(C)c2nc3c(cc2c1)CN(Cc1ccco1)C(=O)O3 |
| > 50 µM (inactive) | COC1=CC(=O)c2c(O)c(C)c(CC(C)=O)c(O)c2C1=O |
| 21.1 µM | COc1ccc(OC)c2c(C)cc(N3CCN(S(=O)(=O)c4ccc5c(c4)CCCN5S(C)(=O)=O)CC3)nc12 |
| > 50 µM (inactive) | CCC(=O)OCc1cnc(C)c2oc(=O)c(-c3nc(-c4ccccc4)no3)cc12 |
| > 50 µM (inactive) | CS(=O)(=O)N1CCCc2cc(C(=O)Nc3ccc4c(c3)OCO4)ccc21 |
| > 50 µM (inactive) | CC1Oc2ccccc2C(=O)N(Cc2ccc([N+](=O)[O-])cc2)C1=O (stereo not given) |
| > 50 µM (inactive) | Cc1cnnn1-c1ccc(C(=O)Nc2cc(Cl)ccc2Cl)cc1 |
| 33.6 µM | O=C(O)c1ccccc1C(=O)Nc1ccc(SC(C(=O)Nc2cccc(Cl)c2)c2ccccc2)cc1 (stereo not given) |
| > 50 µM (inactive) | COc1ccc(-c2cnnn2-c2ccc(NC(=O)c3c(F)cccc3F)cc2)cc1OC |
| > 50 µM (inactive) | CC(=O)c1ccc(NC(=O)c2nc3ccccc3nc2N2CCOCC2)cc1 |
| 20.5 µM | O=C(NCc1ccc(-c2nc3cnccc3o2)cc1)c1ccccc1F |
| > 50 µM (inactive) | Cc1ccccc1NC(=O)Cn1cncc(-c2nc(-c3ccccc3)cs2)c1=O |
| > 50 µM (inactive) | CCn1ccc2c(cc(C(=O)Nc3cc(F)ccc3F)n2C)c1=O |
| > 50 µM (inactive) | c1ccc(CN2CCN(c3nc4ccccc4n4nnnc34)CC2)cc1 |
| > 50 µM (inactive) | CC(C)NS(=O)(=O)c1cccc2c(NC(=O)C(Cc3ccccc3)NC(=O)c3ccccc3)cccc12 (stereo not given) |

From PubChem BioAssay AID1645868 (Buhrlage Lab, Dana-Farber Cancer Institute and Novartis …, 2021)
